Results reported in patent US20230027361A1, “METTL3 MODULATORS” (priority 2019, published 2023).
Like-named read-outs stand apart in the source and are kept apart here.

Columns and labels:
MOLM-13 cells [1] = assay: MOLM-13 96 Hour Cell Proliferation Assay; assay type: cell-based; conditions: Homo sapiens
Experimental: MOLM-13 (DSMZ) cells were seeded at 600 cells per well in a volume of 44 μL in a Greiner Bio-One CELLSTAR™ 384 Well Polystyrene Cell Culture clear bottom microplate in RPMI 1640 media containing 10% fetal bovine serum using a Multidrop Combi (ThermoFisher Scientific). Cells were incubated overnight at 37° C. in a humidified tissue culture incubator. To prevent evaporation or to reduce edge effect, add 50 μL or more H2O to an empty plate, cover, and place on top of the cell plates. The Mosquito® HTS Liquid Handler was used to make a compound/media intermediate plate by aliquoting 1 μL of compound from the initial compound dilution plate (concentrations ranging from 10.0 mM to 38.0 nM in 100% DMSO) into Bio-One 384-well polypropylene conical bottom microplate containing 49 μL of media containing the appropriate serum (50-fold dilution, 2% DMSO, compound concentrations ranging from 200.0 μM and […]). The Apricot liquid handling system was used to transfer 6.2 μL compounds from the intermediate plate into the seeding plate containing 44 μL cells (8-fold dilution spanning concentrations 25.0 μM to […], 0.25% DMSO final), and placed in a humidified tissue culture incubator at 37° C. After 96 hours, 25 μL of Cell Titer-Glo reagent (Promega) was added to each well using an Integra liquid handling system. The plate was protected from light using TopSeal-A (Black) film over the entire plate, added White Bottom seal film on the bottom of the entire plate for a better reading on the Envision, and placed on an IKA plate shaker for at 300 rpm for 10 minutes at room temperature. The plate was read on an EnVision plate reader (Perkin Elmer) using the Ultra Sensitive Luminescence protocol. Data analysis was performed by normalizing the raw luminescence units to an average of the positive control values for staurosporine (100% cell death) and the negative control values for DMSO (0% cell death). An IC50 was calculated using a 4-parameter logistic nonlinear regression model in GraphPad Prism.

METTL3/METTL14 = METTL3/METTL14 (Homo sapiens, UniProt Q86U44); assay: METTL3-14 Standard Enzyme Assay (METTL3 biochemical assay)
METTL3/METTL14, sequence (Q86U44 whole entry, species assumed): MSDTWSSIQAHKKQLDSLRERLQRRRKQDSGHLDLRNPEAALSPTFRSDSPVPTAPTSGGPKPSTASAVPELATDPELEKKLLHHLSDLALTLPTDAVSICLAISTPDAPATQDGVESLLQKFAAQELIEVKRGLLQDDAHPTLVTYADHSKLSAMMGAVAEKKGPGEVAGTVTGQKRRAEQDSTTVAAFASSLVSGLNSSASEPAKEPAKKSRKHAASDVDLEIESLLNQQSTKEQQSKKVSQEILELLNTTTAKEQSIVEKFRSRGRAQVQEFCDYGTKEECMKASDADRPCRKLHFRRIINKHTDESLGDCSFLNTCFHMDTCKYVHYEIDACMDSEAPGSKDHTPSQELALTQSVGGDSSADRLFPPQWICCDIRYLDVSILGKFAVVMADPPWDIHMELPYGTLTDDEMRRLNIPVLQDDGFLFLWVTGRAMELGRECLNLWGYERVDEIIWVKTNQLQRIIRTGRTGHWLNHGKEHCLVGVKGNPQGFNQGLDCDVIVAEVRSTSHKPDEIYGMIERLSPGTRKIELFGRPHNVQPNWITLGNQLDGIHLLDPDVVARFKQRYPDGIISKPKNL
METTL3/METTL14, sequence (Q9HCE5 whole entry partner, species assumed): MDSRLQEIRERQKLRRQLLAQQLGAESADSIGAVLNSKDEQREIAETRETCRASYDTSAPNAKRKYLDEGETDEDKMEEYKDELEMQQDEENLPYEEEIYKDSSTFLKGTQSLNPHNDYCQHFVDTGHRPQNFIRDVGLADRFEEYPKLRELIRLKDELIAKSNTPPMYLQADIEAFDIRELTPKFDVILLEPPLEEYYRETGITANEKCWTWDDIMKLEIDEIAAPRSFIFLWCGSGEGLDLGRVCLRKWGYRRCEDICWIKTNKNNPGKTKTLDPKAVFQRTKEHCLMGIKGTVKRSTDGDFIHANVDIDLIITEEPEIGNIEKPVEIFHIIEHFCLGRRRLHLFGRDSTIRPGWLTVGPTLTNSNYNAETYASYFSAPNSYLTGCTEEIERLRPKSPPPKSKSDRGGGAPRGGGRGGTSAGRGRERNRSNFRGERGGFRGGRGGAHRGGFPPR
Method in brief: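 METTL3/METTL14 at 2.5 nM, preincubated 5 min with compound in 20 mM HEPES pH 7.5, 50 mM KCl, 250 μM MgCl2, 1 mM DTT, at ambient temperature. Started with 100 nM 3′-biotinylated RNA and 100 nM ³H-SAM, quenched at 30 min with 15 μM cold SAM. Methylation read by scintillation on streptavidin flashplates.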

PRMT5-MEP50 = PRMT5-MEP50 (Homo sapiens, UniProt O14744); assay: PRMT5 Assay (PRMT5 biochemical assay)
PRMT5-MEP50, sequence (O14744 whole entry): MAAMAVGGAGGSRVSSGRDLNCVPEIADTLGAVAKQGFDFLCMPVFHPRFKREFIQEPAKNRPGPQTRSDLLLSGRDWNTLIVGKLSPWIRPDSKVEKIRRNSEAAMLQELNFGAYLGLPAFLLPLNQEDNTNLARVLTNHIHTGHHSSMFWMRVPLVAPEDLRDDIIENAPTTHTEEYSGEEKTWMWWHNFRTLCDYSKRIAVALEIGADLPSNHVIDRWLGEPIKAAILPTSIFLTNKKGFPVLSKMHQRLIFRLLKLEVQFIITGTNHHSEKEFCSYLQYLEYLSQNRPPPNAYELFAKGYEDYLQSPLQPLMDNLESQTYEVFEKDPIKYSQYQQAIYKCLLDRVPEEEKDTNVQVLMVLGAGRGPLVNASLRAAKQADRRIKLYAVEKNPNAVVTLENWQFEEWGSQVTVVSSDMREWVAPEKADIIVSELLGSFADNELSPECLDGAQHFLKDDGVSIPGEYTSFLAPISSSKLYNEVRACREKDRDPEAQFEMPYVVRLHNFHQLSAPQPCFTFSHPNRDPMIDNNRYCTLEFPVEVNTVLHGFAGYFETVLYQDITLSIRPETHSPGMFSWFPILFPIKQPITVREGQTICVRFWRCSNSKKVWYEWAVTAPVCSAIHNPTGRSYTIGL
PRMT5-MEP50, sequence (Q9BQA1 whole entry partner): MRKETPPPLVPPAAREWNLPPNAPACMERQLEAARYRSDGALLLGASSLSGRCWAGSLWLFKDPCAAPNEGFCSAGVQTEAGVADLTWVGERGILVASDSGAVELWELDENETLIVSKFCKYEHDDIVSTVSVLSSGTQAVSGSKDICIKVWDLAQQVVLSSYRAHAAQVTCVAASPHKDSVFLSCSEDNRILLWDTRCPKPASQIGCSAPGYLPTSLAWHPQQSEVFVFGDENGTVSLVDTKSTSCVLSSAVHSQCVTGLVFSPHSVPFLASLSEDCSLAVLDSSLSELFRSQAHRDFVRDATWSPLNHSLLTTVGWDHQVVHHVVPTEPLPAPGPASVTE
Method in brief: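 PRMT5-MEP50 (2.5 nM final) preincubated 5 min with compound, then reacted 60 min at ambient temperature with 100 nM biotinylated N-acetyl histone H4 peptide and 250 nM 3H-SAM in 20 mM Tris-HCl pH 8.0, 1 mM DTT, 0.01% Tween. Quenched with 15 μM cold SAM; methylated peptide captured on streptavidin flashplates, scintillation counted.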

METTL1/WDR4 = METTL1/WDR4 (Homo sapiens, UniProt Q9UBP6); assay: METTL1 Assay (METTL1 biochemical assay)
METTL1/WDR4, sequence (Q9UBP6 whole entry, species assumed): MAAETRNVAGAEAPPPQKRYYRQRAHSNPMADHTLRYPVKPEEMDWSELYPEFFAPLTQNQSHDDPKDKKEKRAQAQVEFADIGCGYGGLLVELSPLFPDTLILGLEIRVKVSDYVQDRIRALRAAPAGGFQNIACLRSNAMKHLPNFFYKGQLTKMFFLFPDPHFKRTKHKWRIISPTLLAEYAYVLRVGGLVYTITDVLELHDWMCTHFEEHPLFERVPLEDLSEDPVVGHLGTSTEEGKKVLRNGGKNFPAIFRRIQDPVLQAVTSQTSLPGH
METTL1/WDR4, sequence (P57081 whole entry partner, species assumed): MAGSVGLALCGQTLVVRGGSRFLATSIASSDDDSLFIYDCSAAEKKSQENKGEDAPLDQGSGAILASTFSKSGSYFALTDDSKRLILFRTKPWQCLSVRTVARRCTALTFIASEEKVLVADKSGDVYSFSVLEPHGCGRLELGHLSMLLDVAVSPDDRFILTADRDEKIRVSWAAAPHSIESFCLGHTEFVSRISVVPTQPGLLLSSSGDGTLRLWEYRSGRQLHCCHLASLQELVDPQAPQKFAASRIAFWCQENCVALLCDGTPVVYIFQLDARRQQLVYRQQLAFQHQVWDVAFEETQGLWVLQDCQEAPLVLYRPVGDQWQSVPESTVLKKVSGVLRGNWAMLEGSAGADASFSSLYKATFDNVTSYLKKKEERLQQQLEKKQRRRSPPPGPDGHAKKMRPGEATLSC
Method in brief: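 Radiometric methyltransfer by METTL1/WDR4 (6.25 nM f.c., 5 min preincubation) at ambient temperature in HEPES pH 7.5, KCl, MgCl2, DTT; started with 25 nM 3′-biotinylated RNA and 60 nM 3H-SAM, run 20 min, quenched with 15 μM cold SAM. Product captured on streptavidin flashplates (2 h, 25° C), counted by scintillation.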

MOLM-13 cells [2] = assay: MOLM-13 48 Hour Cell Proliferation Assay; assay type: cell-based; conditions: Homo sapiens
Experimental: MOLM-13 (DSMZ) cells were seeded at 1000 cells per well in a volume of 44 μL in a Falcon 384-well tissue culture treated clear bottom microplate in RPMI 1640 media containing 10% fetal bovine serum using a Multidrop Combi (ThermoFisher Scientific). Cells were incubated overnight at 37° C. in a humidified tissue culture incubator. The Mosquito® HTS Liquid Handler was used to make a compound/media intermediate plate by aliquoting 1 μL of compound from the initial compound dilution plate (concentrations ranging from 10.0 mM to 38.0 nM in 100% DMSO) into a V bottom 384-well screen matrix plate containing 49 μL of media containing the appropriate serum (50-fold dilution, 2% DMSO). The Apricot liquid handling system was used to transfer 6.2 μL compounds from the intermediate plate into the Falcon 384-well tissue culture plate containing 44 μL cells (10-point, 4-fold dilution spanning concentrations 25.0 μM to […], 0.25% DMSO final), and placed in a humidified tissue culture incubator at 37° C. After 48 hours, 25 μL of Cell Titer-Glo reagent (Promega) was added to each well using a Multidrop Combi. The plate was protected from light and placed on an IKA plate shaker for at 300 rpm for 10 minutes at room temperature. The plate was read on an EnVision plate reader (Perkin Elmer) using the Ultra Sensitive Luminescence protocol. Data analysis was performed by normalizing the raw luminescence units to an average of the positive control values for staurosporine (100% cell death) and the negative control values for DMSO (0% cell death). An IC50 was calculated using a 4-parameter logistic nonlinear regression model in GraphPad Prism.

[3] = METTL3 biochemical assay, read-out: METTL3 IC50
[4] = PRMT5 biochemical assay, read-out: PRMT5 IC50
[5] = read-out: METTL1 IC50, METTL1 biochemical assay
[6] = METTL1 biochemical assay, read-out: METTL1 IC50
[7] = read-out: METTL3 IC50, METTL3 biochemical assay
[8] = read-out: PRMT5 IC50, PRMT5 biochemical assay

| Compound | IC50 (MOLM-13 cells [1]; MOLM-13, 96 h) [nM] | IC50 (METTL3/METTL14; [3]) [nM] | IC50 (PRMT5-MEP50; [4]) [nM] | IC50 (MOLM-13 cells [2]) [nM] | IC50 (MOLM-13 cells [1]) [nM] | IC50 (METTL3/METTL14) [nM] | further results |
| --- | --- | --- | --- | --- | --- | --- | --- |
| CNc1ccc2cc(CC[C@H]3C[C@@H](n4ccc5c(N)ncnc54)[C@H](O)[C@@H]3O)ccc2n1 [I-111] | 1000 to 10000 | 100 to 1000 | < 10 |  |  |  | IC50 (METTL1/WDR4; [5]): > 1000 nM |
| Nc1ncnc2c1ccn2[C@H]1C[C@H](O)[C@@H](COc2ccc3ccc(NC4CC4)nc3c2)O1 [I-180] | > 10000 | 10 to 100 | 100 to 1000 | > 10000 |  |  |  |
| CCc1cc(N(C)C)c2ccc(OC[C@H]3O[C@@H](n4cc(-c5ccn(C)n5)c5c(N)ncnc54)[C@@H](F)[C@@H]3O)cc2n1 [I-153] |  |  |  | 1000 to 10000 | < 1000 | < 10 |  |
| CCc1cc(N(C)C2CC2)c2ccc(OC[C@H]3O[C@@H](n4cc(-c5ccn(C)n5)c5c(N)ncnc54)C[C@@H]3O)cc2n1 [I-160] |  |  |  | 1000 to 10000 | 1000 to 10000 | < 10 |  |
| Nc1ncnc2c1c(-c1ncco1)cn2[C@@H]1O[C@H](COc2ccc3ccc(N4CCC4)nc3c2)[C@@H](O)[C@@H]1F [I-219] |  |  |  |  | < 1000 | < 10 | IC50 (PRMT5-MEP50): > 1000 nM |
| CNc1ccc2ccc(OC[C@H]3O[C@@H](n4cc(F)c5c(N)ncnc54)[C@@H](F)[C@@H]3O)cc2n1 [I-230] |  | < 10 | 10 to 100 | 1000 to 10000 |  |  | IC50 (METTL1/WDR4): > 1000 nM |
| CNc1ccc2ccc(OC[C@H]3O[C@@H](n4cc(-c5cccc(C)n5)c5c(N)ncnc54)[C@@H](F)[C@@H]3O)cc2n1 [I-229] |  |  |  | 1000 to 10000 |  | < 10 | IC50 (PRMT5-MEP50): 10 to 100 nM; IC50 (METTL1/WDR4; [6]): > 1000 nM |
| COCCN(C)C(=O)c1cn([C@@H]2O[C@H](COc3ccc4ccc(N5CCC5)nc4c3)[C@@H](O)[C@@H]2F)c2ncnc(N)c12 [I-217] |  |  |  |  | > 10000 | 10 to 100 | IC50 (PRMT5-MEP50): > 1000 nM |
| CNc1ccc2ccc(OC[C@H]3O[C@@H](n4cc(CC5CC5)c5c(N)ncnc54)[C@H](O)[C@@H]3O)cc2n1 [I-142] |  | < 10 | 10 to 100 | 1000 to 10000 |  |  | IC50 (METTL1/WDR4; [5]): > 1000 nM |
| CCNc1ccc2ccc(OC[C@H]3O[C@@H](n4cc(-c5ccn(C)n5)c5c(N)ncnc54)[C@@H](F)[C@@H]3O)cc2n1 [I-7] | < 1000 |  |  |  |  |  | IC50 (METTL3/METTL14; [7]): < 10 nM; IC50 (PRMT5-MEP50; [8]): 10 to 100 nM; IC50 (METTL1/WDR4; [6]): > 1000 nM |
| Nc1ncnc2c1ccn2[C@@H]1C[C@H](CCc2ccc3nccnc3c2)[C@@H](O)[C@H]1O [I-130] | < 1000 |  | < 10 |  |  |  | IC50 (METTL1/WDR4; [5]): > 1000 nM |
| Cn1ccc(-c2cn([C@@H]3O[C@H](COc4ccc5cnc(N6CCC6)nc5c4)[C@@H](O)[C@@H]3F)c3ncnc(N)c23)n1 [I-199] |  |  |  |  | 1000 to 10000 | < 10 | IC50 (PRMT5-MEP50): > 1000 nM |
| Nc1ccc2cc(CC[C@H]3C[C@@H](n4ccc5c(N)ncnc54)[C@H](O)[C@@H]3O)ccc2n1 [I-125] | 1000 to 10000 | 100 to 1000 | < 10 |  |  |  | IC50 (METTL1/WDR4; [5]): > 1000 nM |
| CCc1cc(N2CCOCC2)c2ccc(OC[C@H]3O[C@@H](n4cc(-c5ccn(C)n5)c5c(N)ncnc54)[C@@H](F)[C@@H]3O)cc2n1 [I-156] |  |  |  | 1000 to 10000 | < 1000 | < 10 |  |
| CNc1ccc2ccc(OC[C@H]3O[C@@H](n4cc(-c5ccn(C(C)C)n5)c5c(N)ncnc54)[C@@H](F)[C@@H]3O)cc2n1 [I-2] |  |  |  |  | < 1000 |  | IC50 (METTL3/METTL14; [7]): < 10 nM; IC50 (PRMT5-MEP50; [8]): 100 to 1000 nM |
